Measurements taken from patent publication US5512434A (priority 1992, dated 1996).
Each block holds one molecule with its values, some of them ahead of it.

Columns and labels:
[1] = biological target: T1, human phosphatase VHR, wild type, SEQ ID NO:2 (Homo sapiens, UniProt P51452); assay type: biochemical
T1 construct: fragment containing the entire VHR coding region; glutathione-S-transferase (GST), pGEX-KT (N, cleaved yes); made in house
Description: (§1) Production and purification of bacterially-expressed VHR. A 0.8 kB SalI-HinDIII fragment containing the entire VHR coding region was blunt-ended with DNA polymerase (Klenow fragment), and BamHI linkers were added. DNA was digested with BamHI, and inserted in-frame into the BamHI site of the pGEX-KT expression vector, described in Hakes et al., Anal. Biochem. 202:293-298 (1992), to produce pGEX-VHR. Plasmid pGEX-VHR was used to express VHR as a fusion protein with glutathione-S-transferase (GST). Expression and purification of GST-VHR was performed as described for a rat brain PTP. Guan et al. (Anal. Biochem. 1991). […] VHR protein, obtained by thrombin cleavage of the purified GST fusion protein, was used for phosphatase assays.
(§2) Phosphatase assays with purified VHR. Dephosphorylation of p-nitrophenylphosphate (pNPP) was performed as described previously. Tonks et al., J. Biol. Chem. 263:6731-6737 (1988).
(§3) Fischer et al. (1991); Hunter et al. (1989).

[2] = biological target: highly purified PDGF receptor (baculovirus-expressed)
[3] = biological target: human phosphatase VHR (clone 27 lysate, pCEV27) (Homo sapiens, UniProt P51452); settings: 3 mM sodium vanadate, 37 C, 30 minutes
human phosphatase VHR (clone 27 lysate, pCEV27), sequence (P51452 whole entry, the tested form may be a part): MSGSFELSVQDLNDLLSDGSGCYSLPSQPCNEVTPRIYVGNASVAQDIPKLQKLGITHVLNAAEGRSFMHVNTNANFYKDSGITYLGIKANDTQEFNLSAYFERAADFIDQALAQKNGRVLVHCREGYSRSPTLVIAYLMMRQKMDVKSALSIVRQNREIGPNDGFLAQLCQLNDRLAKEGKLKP
Description: Phosphatase assays with bacterial extracts. […] Cultures of E. coli strain Y1091 (50 ml), carrying either pCEV-bek, pCEV-lacZ (pCEV-lacZ vector without an insert), or pCEV27 were grown and induced with 1 mM IPTG as described. […] Cells were collected by centrifugation and lysed in 1 ml of buffer containing 50 mM HEPES, pH 7.4, 1% Triton X-100, and 1 mM phenylmethylsulfonyl fluoride. Lysates were sonicated twice for ten seconds each, clarified by centrifugation, and the supernatants were tested for phosphatase activity.
The reaction was stopped by boiling in sodium dodecyl sulfate polyacrylamide gel electrophoresis (SDS-PAGE) sample buffer, described by Laemmli, Nature 227:680-685 (1970), for three minutes. The Sample was divided into two equal aliquots, resolved by 6.5% SDS-PAGE, and transferred to Immobilon (Milipore).
Immunoblotting was performed with monoclonal anti-pTyr (Upstate Biotechnology, Inc.) or monoclonal anti-β-gal antibodies (Promega) as described previously.

[4] = biological target: human phosphatase VHR as GST-VHR fusion protein (glutathione-S-transferase fusion, VHR SEQ ID NO:2) (Homo sapiens, UniProt P51452); settings: hydrolysis of pNPP, absorbance at 410 nm
human phosphatase VHR as GST-VHR fusion protein (glutathione-S-transferase fusion, VHR SEQ ID NO:2), sequence (P51452 whole entry, the tested form may be a part): as above
Description: as §1, §2, §3

T1 sequence (P51452 whole entry, the tested form may be a part): as above

Molecule: [F-].[Na+] [sodium fluoride]
inhibitory effect on the enzyme activity (pNPP hydrolysis) [1]: no inhibitory effect

Km of dephosphorylation (anti-pTyr/[125I]-protein A immunoblot, PhosphorImager) [2]: < 100 mM
Molecule: VHR (enzyme)

Molecule: C=C1[C@@H](O)[C@@H]2O[C@]3(CC[C@H](/C=C/[C@@H](C)[C@@H]4CC(C)=C[C@@]5(O[C@H](C[C@@](C)(O)C(=O)O)CC[C@H]5O)O4)O3)CC[C@H]2O[C@@H]1[C@@H](O)C[C@H](C)[C@H]1O[C@@]2(CCCCO2)CC[C@H]1C [Okadaic acid]
inhibitory effect on the enzyme activity (pNPP hydrolysis) [1]: no inhibitory effect

Molecule: sodium vanadate
inhibition of pNPP hydrolysis by the phosphatase [1]: completely inhibited | inhibition of the reduction of pTyr content of beta-gal-bek by clone 27 lysate [3]: inhibited

Km (pNPP) [4]: in the micromolar range | Km (pNPP) after cleavage of the VHR from GST with thrombin ([1]; compared with GST-VHR fusion, data not shown): unchanged
Molecule: O=[N+]([O-])c1ccc(OP(=O)(O)O)cc1 [pNPP, p-nitrophenylphosphate]
